{
  "source": "patent US5487898A",
  "about": "“Compositions and method for the sublingual or buccal administration therapeutic agents” (Abbott Laboratories, priority 1994, dated 1996)",
  "key": {"[1]": {"details": "dog, in vivo", "description": "The dose of administered leuprolide acetate mid the measurement of plasma leuprolide concentration are the same as described for FIG. 1.\nIn this and subsequent Examples, bioavailability is calculated and expressed either in terms of Area Under Curve (AUC) or as percent (%) bioavailability. AUC is determined by calculating the area under the curve of plots of time (X-axis) versus plasma concentration (Y-axis) of the administered polypeptide. Typically, AUC is determined over a 6 (0-6) or 8 (0-8) hour period. Percent bioavailability is calculated as the ratio [formula] Increases in AUC and/or bioavailability indicate increased bioavailability of the administered polypeptide.\nIn one such composition the pH value was adjusted to a value of about 7.0 with NaOH.\nThe liquid compositions were sublingually administered to dogs (0.1 ml/10 kg body wt) and the plasma levels of leuprolide measured over 8 hours."}, "[2]": {"details": "dog, in vivo", "remark": "listed apart in the source"}},
  "note": "Where two headings read alike, the source gives them in different places.",
  "data": [
    {"smiles": "CCNC(=O)[C@@H]1CCCN1C(=O)[C@H](CCCNC(=N)N)NC(=O)[C@H](CC(C)C)NC(=O)[C@@H](CC(C)C)NC(=O)[C@H](Cc1ccc(O)cc1)NC(=O)[C@H](CO)NC(=O)[C@H](Cc1c[nH]c2ccccc12)NC(=O)[C@H](Cc1c[nH]cn1)NC(=O)[C@@H]1CCC(=O)N1", "note": "[leuprolide acetate, 5-oxo-L-prolyl-L-histidyl-L-tryptophanyl-L-seryl-L-tyrosyl-D-leueyl-L-leueyl-L-arginyl-L-prolyl-ethylamide]", "values": [
      {"measurement": "bioavailability vs benzoic acid concentration (FIG. 3)", "setting": "[1]", "result": "directly proportional to benzoic acid concentration"},
      {"measurement": "Percent Bioavailability", "setting": "[1]; pH 5.6", "result": 24.5, "unit": "%"},
      {"measurement": "Percent Bioavailability", "setting": "[1]; pH 7", "result": 2.7, "unit": "%"},
      {"measurement": "bioavailability, AUC 0-8 hours vs peppermint oil concentration (FIG. 4)", "setting": "[2]", "result": "increases the bioavailability"}
    ]}
  ]
}
